{
  "source": "patent US20210207081A1",
  "about": "“MATURE AIRWAY ORGANOIDS, METHODS OF MAKING AND USES THEREOF” (priority 2018, published 2021)",
  "system": "H7N9/Ah virus",
  "type": "cell-based, Influenza A virus A/Anhui/1/2013(H7N9)",
  "data": [
    {"compound": "NCCc1ccc(S(=O)(=O)F)cc1", "note": "[AEBSF]", "values": [
      {"measurement": "replication of H7N9/Ah virus", "value": "significantly restricted the active replication of H7N9/Ah virus"}
    ]}
  ]
}
